{
  "source": "patent US10981891B2",
  "about": "“Antibacterial compounds and uses thereof” (priority 2016, dated 2021)",
  "data": [
    {"system": "M. tuberculosis H37Rv (ATCC 27294)", "assay": "Microplate Alamar Blue assay (MABA), MIC against replicating M. tuberculosis H37Rv", "format": "cell-based", "conditions": "Mycobacterium tuberculosis, 168 h; H37Rv, MABA, 7H12 media, 7 days at 37° C.; MIC = lowest concentration reducing fluorescence by 90% relative to controls; read-out: M. tuberculosis MIC", "units": {"MIC": "mg/L"}, "values": [
      {"smiles": "COc1nc2ccc(C#N)cc2cc1C(c1cccc2c1OCCO2)C(O)(CCN(C)C)c1cc(SC)nc(SC)c1", "note": "(stereo not drawn) [Example 90, 3-(2-(2,6-Bis(methylthio)pyridin-4-yl)-1-(2,3-dihydrobenzo[b][1,4]dioxin-5-yl)-4-(dimethylamino)-2-hydroxybutyl)-2-methoxyquinoline-6-carbonitrile]", "MIC": 0.01},
      {"smiles": "COc1nc2ccc(C#N)cc2cc1C(c1cccc(C)c1F)C(O)(CCN(C)C)c1cc(SC)nc(SC)c1", "note": "(stereo not drawn) [Example 89, 3-(2-(2,6-Bis(methylthio)pyridin-4-yl)-4-(dimethylamino)-1-(2-fluoro-3-methylphenyl)-2-hydroxybutyl)-2-methoxyquinoline-6-carbonitrile]", "MIC": 0.02},
      {"smiles": "COc1nc2ccc(Br)cc2cc1C(c1cccc(C)c1F)C(O)(CCN(C)C)c1cc(SC)nc(SC)c1", "note": "(stereo not drawn) [Example 55, 2-(2,6-Bis(methylthio)pyridin-4-yl)-1-(6-bromo-2-methoxyquinolin-3-yl)-4-(dimethylamino)-1-(2-fluoro-3-methylphenyl)butan-2-ol]", "MIC": "< 0.004"},
      {"smiles": "COc1cc(C(c2cc3cc(Br)ccc3nc2OC)C(O)(CCN(C)C)c2cccc3ccoc23)cc(OC(C)C)n1", "note": "(stereo not drawn) [Example 21, 2-(Benzofuran-7-yl)-1-(6-bromo-2-methoxyquinolin-3-yl)-4-(dimethylamino)-1-(2-isopropoxy-6-methoxypyridin-4-yl)butan-2-ol]", "MIC": "< 0.02"},
      {"smiles": "COc1cccc(C(c2cc3cc(Br)ccc3nc2OC)C(O)(CCN(C)C)c2cc(SC)nc(SC)c2)c1F", "note": "(stereo not drawn) [Example 45, 2-(2,6-Bis(methylthio)pyridin-4-yl)-1-(6-bromo-2-methoxyquinolin-3-yl)-4-(dimethylamino)-1-(2-fluoro-3-methoxyphenyl)butan-2-ol]", "MIC": "< 0.02"},
      {"smiles": "COc1cc(C(O)(CCN(C)C)C(c2cc3cc(Br)ccc3nc2OC)c2cccc(OC)c2F)cc(OC(C)C)n1", "note": "(stereo not drawn) [Example 16, 1-(6-Bromo-2-methoxyquinolin-3-yl)-4-(dimethylamino)-1-(2-fluoro-3-methoxyphenyl)-2-(2-isopropoxy-6-methoxypyridin-4-yl)butan-2-ol]", "MIC": "< 0.02"},
      {"smiles": "COc1nc2ccc(C#N)cc2cc1C(c1cccc(F)c1)C(O)(CCN(C)C)c1cccc2ccoc12", "note": "(stereo not drawn) [Example 74, 3-(2-(Benzofuran-7-yl)-4-(dimethylamino)-1-(3-fluorophenyl)-2-hydroxybutyl)-2-methoxyquinoline-6-carbonitrile]", "MIC": 0.04},
      {"smiles": "COc1cc(C(O)(CCN(C)C)C(c2cccc(F)c2)c2cc3cc(C#N)ccc3nc2OC)cc(OC)n1", "note": "(stereo not drawn) [Example 80, 3-(2-(2,6-Dimethoxypyridin-4-yl)-4-(dimethylamino)-1-(3-fluorophenyl)-2-hydroxybutyl)-2-methoxyquinoline-6-carbonitrile]", "MIC": 0.03},
      {"smiles": "CCOc1cc(C(O)(CCN(C)C)C(c2cc3cc(Br)ccc3nc2OC)c2ccnc(OC)c2OC)cc(OC)n1", "note": "(stereo not drawn) [Example 20, 1-(6-Bromo-2-methoxyquinolin-3-yl)-1-(2,3-dimethoxypyridin-4-yl)-4-(dimethylamino)-2-(2-ethoxy-6-methoxypyridin-4-yl)butan-2-ol]", "MIC": "< 0.02"},
      {"smiles": "COc1cc(C(O)(CCN(C)C)C(c2cc3cc(Br)ccc3nc2OC)c2cccc(OC)c2F)cc(SC)n1", "note": "(stereo not drawn) [Example 48, 1-(6-Bromo-2-methoxyquinolin-3-yl)-4-(dimethylamino)-1-(2-fluoro-3-methoxyphenyl)-2-(2-methoxy-6-(methylthio)pyridin-4-yl)butan-2-ol]", "MIC": "< 0.02"},
      {"smiles": "COc1cc(C(O)(CCN(C)C)C(c2cc3cc(Br)ccc3nc2OC)c2cccc(OC)c2F)cc(OC(F)F)n1", "note": "(stereo not drawn) [Example 49, 1-(6-Bromo-2-methoxyquinolin-3-yl)-2-(2-(difluoromethoxy)-6-methoxypyridin-4-yl)-4-(dimethylamino)-1-(2-fluoro-3-methoxyphenyl)butan-2-ol]", "MIC": 0.04},
      {"smiles": "COc1nc2ccc(Br)cc2cc1C(c1ccccc1)C(O)(CCN(C)C)c1cccc2occc12", "note": "(stereo not drawn) [Example 14, 2-(Benzofuran-4-yl)-1-(6-bromo-2-methoxyquinolin-3-yl)-4-(dimethylamino)-1-phenylbutan-2-ol]", "MIC": 0.06},
      {"smiles": "CCOc1cc(C(O)(CCN(C)C)C(c2cc3cc(Cl)ccc3nc2OC)c2cccc(OC)c2F)cc(OCC)n1", "note": "(stereo not drawn) [Example 27, 1-(6-Chloro-2-methoxyquinolin-3-yl)-2-(2,6-diethoxypyridin-4-yl)-4-(dimethylamino)-1-(2-fluoro-3-methoxyphenyl)butan-2-ol]", "MIC": 0.01},
      {"smiles": "CCOc1cc(C(c2cc3cc(Br)ccc3nc2OC)C(O)(CCN(C)C)c2cccc3ccoc23)cc(OC)n1", "note": "(stereo not drawn) [Example 22, 2-(Benzofuran-7-yl)-1-(6-bromo-2-methoxyquinolin-3-yl)-4-(dimethylamino)-1-(2-ethoxy-6-methoxypyridin-4-yl)butan-2-ol]", "MIC": "< 0.02"},
      {"smiles": "COc1cc(C(O)(CCN(C)C)C(c2cccc(F)c2)c2cc3cc(Br)ccc3nc2OC)cc(OC)n1", "note": "(stereo not drawn) [Example 39, 1-(6-Bromo-2-methoxyquinolin-3-yl)-2-(2,6-dimethoxypyridin-4-yl)-4-(dimethylamino)-1-(3-fluorophenyl)butan-2-ol]", "MIC": "< 0.02"},
      {"smiles": "COc1cc(C(O)(CCN(C)C)C(c2cc3cc(C#N)ccc3nc2OC)c2ccnc(OC)c2OC)cc(OC(F)F)n1", "note": "(stereo not drawn) [Example 83, 3-(2-(2-(Difluoromethoxy)-6-methoxypyridin-4-yl)-1-(2,3-dimethoxypyridin-4-yl)-4-(dimethylamino)-2-hydroxybutyl)-2-methoxyquinoline-6-carbonitrile]", "MIC": "< 0.02"},
      {"smiles": "COc1cc(C(O)(CCN(C)C)C(c2cc3cc(Br)ccc3nc2OC)c2ccnc(OC)c2OC)c(OC)c(OC)n1", "note": "(stereo not drawn) [Example 61, 1-(6-Bromo-2-methoxyquinolin-3-yl)-1-(2,3-dimethoxypyridin-4-yl)-4-(dimethylamino)-2-(2,3,6-trimethoxypyridin-4-yl)butan-2-ol]", "MIC": 0.02},
      {"smiles": "COc1nc2ccc(C#N)cc2cc1C(c1cccc(F)c1)C(O)(CCN(C)C)c1cc2ccccc2o1", "note": "(stereo not drawn) [Example 73, 3-(2-(Benzofuran-2-yl)-4-(dimethylamino)-1-(3-fluorophenyl)-2-hydroxybutyl)-2-methoxyquinoline-6-carbonitrile]", "MIC": 0.08},
      {"smiles": "COc1cc(C(O)(CCN(C)C)C(c2cccc(C)c2)c2cc3cc(Br)ccc3nc2OC)cc(OC(C)C)n1", "note": "(stereo not drawn) [Example 25, 1-(6-Bromo-2-methoxyquinolin-3-yl)-4-(dimethylamino)-2-(2-isopropoxy-6-methoxypyridin-4-yl)-1-(m-tolyl)butan-2-ol]", "MIC": 0.01},
      {"smiles": "COc1cc(C(O)(CCN(C)C)C(c2cc3cc(C#N)ccc3nc2OC)c2ccnc(OC)c2OC)cc(N(C)C)n1", "note": "(stereo not drawn) [Example 94, 3-(1-(2,3-Dimethoxypyridin-4-yl)-4-(dimethylamino)-2-(2-(dimethylamino)-6-methoxypyridin-4-yl)-2-hydroxybutyl)-2-methoxyquinoline-6-carbonitrile]", "MIC": 0.06},
      {"smiles": "COc1cc(C(O)(CCN(C)C)C(c2cc3cc(Br)ccc3nc2OC)c2ccnc(OC)c2OC)cc(OC2CCC2)n1", "note": "(stereo not drawn) [Example 30, 1-(6-Bromo-2-methoxyquinolin-3-yl)-2-(2-cyclobutoxy-6-methoxypyridin-4-yl)-1-(2,3-dimethoxypyridin-4-yl)-4-(dimethylamino)butan-2-ol]", "MIC": "< 0.004"},
      {"smiles": "COc1cc(C(O)(CCN(C)C)C(c2cc3cc(C#N)ccc3nc2OC)c2cccc3c2OCCO3)cc(OC(F)F)n1", "note": "(stereo not drawn) [Example 91, 3-(2-(2-(Difluoromethoxy)-6-methoxypyridin-4-yl)-1-(2,3-dihydrobenzo[b][1,4]dioxin-5-yl)-4-(dimethylamino)-2-hydroxybutyl)-2-methoxyquinoline-6-carbonitrile]", "MIC": 0.02},
      {"smiles": "COc1cccc(C(c2cc3cc(Br)ccc3nc2OC)C(O)(CCN(C)C)c2cc(C)nc(C)c2)c1OC", "note": "(stereo not drawn) [Example 37, 1-(6-Bromo-2-methoxyquinolin-3-yl)-1-(2,3-dimethoxyphenyl)-4-(dimethylamino)-2-(2,6-dimethylpyridin-4-yl)butan-2-ol]", "MIC": 0.08},
      {"smiles": "COc1cc(C(O)(CCN(C)C)C(c2cc3cc(C#N)ccc3nc2OC)c2cccc(OC)c2F)cc(SC)n1", "note": "(stereo not drawn) [Example 87, 3-(4-(Dimethylamino)-1-(2-fluoro-3-methoxyphenyl)-2-hydroxy-2-(2-methoxy-6-(methylthio)pyridin-4-yl)butyl)-2-methoxyquinoline-6-carbonitrile]", "MIC": 0.02},
      {"smiles": "COc1nc2ccc(Br)cc2cc1C(c1ccnc(OC)c1OC)C(O)(CCN(C)C)c1ccc2occc2c1", "note": "(stereo not drawn) [Example 10, 2-(Benzofuran-5-yl)-1-(6-bromo-2-methoxyquinolin-3-yl)-1-(2,3-dimethoxypyridin-4-yl)-4-(dimethylamino)butan-2-ol]", "MIC": 0.03},
      {"smiles": "CCOc1cc(C(O)(CCN(C)C)C(c2cc3cc(Br)ccc3nc2OC)c2ccnc(OC)c2OC)cc(OC(C)C)n1", "note": "(stereo not drawn) [Example 23, 1-(6-Bromo-2-methoxyquinolin-3-yl)-1-(2,3-dimethoxypyridin-4-yl)-4-(dimethylamino)-2-(2-ethoxy-6-isopropoxypyridin-4-yl)butan-2-ol]", "MIC": "< 0.02"},
      {"smiles": "CCOc1cc(C(O)(CCN(C)C)C(c2cc3cc(Br)ccc3nc2OC)c2cccc(OC)c2F)cc(OC)n1", "note": "(stereo not drawn) [Example 17, 1-(6-Bromo-2-methoxyquinolin-3-yl)-4-(dimethylamino)-2-(2-ethoxy-6-methoxypyridin-4-yl)-1-(2-fluoro-3-methoxyphenyl)butan-2-ol]", "MIC": "< 0.01"},
      {"smiles": "CNCCC(O)(c1cc(OC)nc(OC)c1)C(c1ccc(C)s1)c1cc2cc(C#N)ccc2nc1OC", "note": "(stereo not drawn) [Example 78, 3-(2-(2,6-Dimethoxypyridin-4-yl)-2-hydroxy-4-(methylamino)-1-(5-methylthiophen-2-yl)butyl)-2-methoxyquinoline-6-carbonitrile]", "MIC": 0.09},
      {"smiles": "CNCCC(O)(c1cc(OC)nc(OC)c1)C(c1cc2cc(C#N)ccc2nc1OC)c1cccc2c1OCCO2", "note": "(stereo not drawn) [Example 93, 3-(1-(2,3-Dihydrobenzo[b][1,4]dioxin-5-yl)-2-(2,6-dimethoxypyridin-4-yl)-2-hydroxy-4-(methylamino)butyl)-2-methoxyquinoline-6-carbonitrile]", "MIC": 0.01},
      {"smiles": "COc1cc(C(O)(CCN(C)C)C(c2cc3cc(Br)ccc3nc2OC)c2sc(OC)nc2Cl)cc(OC)n1", "note": "(stereo not drawn) [Example 71, 1-(6-Bromo-2-methoxyquinolin-3-yl)-1-(4-chloro-2-methoxythiazol-5-yl)-2-(2,6-dimethoxypyridin-4-yl)-4-(dimethylamino)butan-2-ol]", "MIC": 0.03}
    ]}
  ]
}
